Reference: US20230391752A1, “PYRROLIDINE-3-CARBOXAMIDE DERIVATIVES AND RELATED USES” (Chulalongkorn University, priority 2020, published 2023)

tested on: HBV; test: In vitro anti-HBV activity in HepG2.2.15 cell line (intracellular HBV DNA by qPCR at 1 μM); assay type: cell-based; conditions: Hepatitis B virus, 144 h; HepG2.2.15 cells, 1 μM compound, 6 days, intracellular HBV DNA as percentage compared to vehicle control (0.5% DMSO)
Summary of the method: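 HepG2.2.15 cells given compound at 1 μM (0.5% DMSO final) for 3 days, then fresh compound-containing medium for 3 more days. After 6 days intracellular HBV DNA measured by qPCR. Expressed as % of 0.5% DMSO vehicle control and binned into letter ranges.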

`O=C(Nc1cc(F)c(F)c(F)c1)[C@H]1CCN(C(=O)c2ccc(-c3ccncc3F)[nH]2)C1` [Example 95, (S)-1-(5-(3-fluoropyridin-4-yl)-1H-pyrrole-2-carbonyl)-N-(3,4,5-trifluorophenyl) pyrrolidine-3-carboxamide] and `O=C(Nc1cc(F)c(F)c(F)c1)[C@H]1CCN(C(=O)c2ccc(-c3cnccn3)[nH]2)C1` [Example 131, (S)-1-(5-(pyrazin-2-yl)-1H-pyrrole-2-carbonyl)-N-(3,4,5-trifluorophenyl)pyrrolidine-3-carboxamide] fall in the same range of activity at 1 µM: 45 to 60% for the first, 45 to 60% for the second.

Compared with `O=C(Nc1cc(F)c(F)c(F)c1)[C@H]1CCN(C(=O)c2ccc(-c3cccnn3)[nH]2)C1` [Example 96, (S)-1-(5-(pyridazin-3-yl)-1H-pyrrole-2-carbonyl)-N-(3,4,5-trifluorophenyl)pyrrolidine-3-carboxamide], `Cc1ccnnc1-c1ccc(C(=O)N2CC[C@H](C(=O)Nc3cc(F)c(F)c(F)c3)C2)[nH]1` [Example 98, (S)-1-(5-(4-methylpyridazin-3-yl)-1H-pyrrole-2-carbonyl)-N-(3,4,5-trifluorophenyl) pyrrolidine-3-carboxamide] is higher in activity at 1 µM: 45 to 60% for the first, 70 to 80% for the second.

Compared with `N#Cc1ncccc1-c1ccc(C(=O)N2CC[C@H](C(=O)Nc3cc(F)c(F)c(F)c3)C2)[nH]1` [Example 97, (S)-1-(5-(2-cyanopyridin-3-yl)-1H-pyrrole-2-carbonyl)-N-(3,4,5-trifluorophenyl) pyrrolidine-3-carboxamide], `Cc1ncccc1Cc1ccc(C(=O)N2CC[C@H](C(=O)Nc3cc(F)c(F)c(F)c3)C2)[nH]1` [Example 145, (S)-1-(5-((2-methylpyridin-3-yl)methyl)-1H-pyrrole-2-carbonyl)-N-(3,4,5-trifluorophenyl)pyrrolidine-3-carboxamide] is higher in activity at 1 µM: under 45% for the first, 70 to 80% for the second.

`COc1ncnc(C)c1-c1ccc(C(=O)N2CC[C@H](C(=O)Nc3ccc(F)c(Cl)c3)C2)[nH]1` [Example 106, (S)—N-(3-chloro-4-fluorophenyl)-1-(5-(4-methoxy-6-methylpyrimidin-5-yl)-1H-pyrrole-2-carbonyl)pyrrolidine-3-carboxamide] and `Cc1cc(NC(=O)[C@H]2CCN(C(=O)c3ccc(-c4ccnnc4)[nH]3)C2)ccc1F` [Example 130, (S)—N-(4-fluoro-3-methylphenyl)-1-(5-(pyridazin-4-yl)-1H-pyrrole-2-carbonyl)pyrrolidine-3-carboxamide] cannot be ordered by activity at 1 µM: under 45% for the first, under 45% for the second.

Compared with `Cc1ncn(C)c1-c1ccc(C(=O)N2CC[C@H](C(=O)Nc3cc(F)c(F)c(F)c3)C2)[nH]1` [Example 107, (S)-1-(5-(1,4-dimethyl-1H-imidazol-5-yl)-1H-pyrrole-2-carbonyl)-N-(3,4,5-trifluorophenyl) pyrrolidine-3-carboxamide], `Cc1ncsc1-c1ccc(C(=O)N2CC[C@H](C(=O)Nc3cc(F)c(F)c(F)c3)C2)[nH]1` [Example 108, (S)-1-(5-(4-methylthiazol-5-yl)-1H-pyrrole-2-carbonyl)-N-(3,4,5-trifluorophenyl) pyrrolidine-3-carboxamide] is lower in activity at 1 µM: 70 to 80% for the first, 45 to 60% for the second.

First: Cc1noc(C)c1-c1ccc(C(=O)N2CC[C@H](C(=O)Nc3cc(F)c(F)c(F)c3)C2)[nH]1 [Example 109, (S)-1-(5-(3,5-dimethylisoxazol-4-yl)-1H-pyrrole-2-carbonyl)-N-(3,4,5-trifluorophenyl) pyrrolidine-3-carboxamide]
Second: Cc1cn[nH]c(=O)c1-c1ccc(C(=O)N2CC[C@H](C(=O)Nc3cc(F)c(F)c(F)c3)C2)[nH]1 [Example 124, (S)-1-(5-(5-methyl-3-oxo-2,3-dihydropyridazin-4-yl)-1H-pyrrole-2-carbonyl)-N-(3,4,5-trifluorophenyl)pyrrolidine-3-carboxamide]
The activity at 1 µM of the first is higher: 60 to 70% for the first, 45 to 60% for the second.

`Cc1nn(CC(=O)N2CC(O)C2)c(C)c1-c1ccc(C(=O)N2CC[C@H](C(=O)Nc3cc(F)c(F)c(F)c3)C2)[nH]1` [Example 112, (S)-1-(5-(1-(2-(3-hydroxyazetidin-1-yl)-2-oxoethyl)-3,5-dimethyl-1H-pyrazol-4-yl)-1H-pyrrole-2-carbonyl)-N-(3,4,5-trifluorophenyl)pyrrolidine-3-carboxamide] and `Cc1cc[nH]c(=O)c1-c1ccc(C(=O)N2CC[C@H](C(=O)Nc3cc(F)c(F)c(F)c3)C2)[nH]1` [Example 118, (S)-1-(5-(4-methyl-2-oxo-1,2-dihydropyridin-3-yl)-1H-pyrrole-2-carbonyl)-N-(3,4,5-trifluorophenyl)pyrrolidine-3-carboxamide] fall in the same range of activity at 1 µM: 60 to 70% for the first, 60 to 70% for the second.

First: O=C(Nc1cc(F)c(F)c(F)c1)[C@H]1CCN(C(=O)c2ccc(-c3cn[nH]c(=O)c3)[nH]2)C1 [Example 121, (S)-1-(5-(6-oxo-1,6-dihydropyridazin-4-yl)-1H-pyrrole-2-carbonyl)-N-(3,4,5-trifluorophenyl)pyrrolidine-3-carboxamide]
Second: O=C(Nc1cc(F)c(F)c(F)c1)[C@H]1CCN(C(=O)c2ccc(Cc3cccnc3)[nH]2)C1 [Example 143, (S)-1-(5-(pyridin-3-ylmethyl)-1H-pyrrole-2-carbonyl)-N-(3,4,5-trifluorophenyl)pyrrolidine-3-carboxamide]
The activity at 1 µM of the first is lower: 80 to 90% for the first, over 90% for the second.

First: Cc1cc(NC(=O)[C@H]2CCN(C(=O)c3ccc(-c4c(C)nn(CCO)c4C)[nH]3)[C@H]2C)ccc1F [Example 126, (2S,3S)—N-(4-fluoro-3-methylphenyl)-1-(5-(1-(2-hydroxyethyl)-3,5-dimethyl-1H-pyrazol-4-yl)-1H-pyrrole-2-carbonyl)-2-methylpyrrolidine-3-carboxamide]
Second: Cc1ncccc1C(=O)c1ccc(C(=O)N2CC[C@H](C(=O)Nc3cc(F)c(F)c(F)c3)C2)[nH]1 [Example 144, (S)-1-(5-(2-methylnicotinoyl)-1H-pyrrole-2-carbonyl)-N-(3,4,5-trifluorophenyl)pyrrolidine-3-carboxamide]
The activity at 1 µM of the first is lower: under 45% for the first, over 90% for the second.

First: Cc1n[nH]c(C)c1-c1ccc2cc(C(=O)N3CC[C@H](C(=O)Nc4cc(F)c(F)c(F)c4)C3)[nH]c2c1 [Example 134, (S)-1-(6-(3,5-dimethyl-1H-pyrazol-4-yl)-1H-indole-2-carbonyl)-N-(3,4,5-trifluorophenyl)pyrrolidine-3-carboxamide]
Second: O=C(Nc1cc(F)c(F)c(F)c1)[C@H]1CCN(C(=O)c2[nH]c3ccccc3c2-c2cn[nH]c2)C1 [Example 140, (S)-1-(3-(1H-pyrazol-4-yl)-1H-indole-2-carbonyl)-N-(3,4,5-trifluorophenyl)pyrrolidine-3-carboxamide]
The activity at 1 µM of the first is lower: under 45% for the first, over 90% for the second.

First: Cc1ncnc(C)c1-c1ccc2c(Cl)c(C(=O)N3CC[C@H](C(=O)NCc4cnc(Cl)s4)C3)[nH]c2c1 [Example 136, (S)-1-(3-chloro-6-(4,6-dimethylpyrimidin-5-yl)-1H-indole-2-carbonyl)-N-((2-chlorothiazol-5-yl)methyl)pyrrolidine-3-carboxamide]
Second: Cc1ncnc(C)c1-c1cccc2c(Cl)c(C(=O)N3CC[C@H](C(=O)Nc4ccc(F)c(C#N)c4)C3)[nH]c12 [Example 137, (S)-1-(3-chloro-7-(4,6-dimethylpyrimidin-5-yl)-1H-indole-2-carbonyl)-N-(3-cyano-4-fluorophenyl)pyrrolidine-3-carboxamide]
The activity at 1 µM of the first is higher: over 90% for the first, 45 to 60% for the second.

`O=C(c1cccnc1)c1ccc(C(=O)N2CC[C@H](C(=O)Nc3cc(F)c(F)c(F)c3)C2)[nH]1` [Example 142] gave an activity at 1 µM of over 90%.
